Experimental data: paper PMC3199867, “Targeting surface nucleolin with multivalent HB-19 and related Nucant pseudopeptides results in distinct inhibitory mechanisms depending on the malignant tumor cell type” (BMC Cancer, 2011)

Experiments:
[1] = target: nucleolin (cell-surface expressed nucleolin), human (human (endogenous in HeLa, CEM, MDA-MB-231, HuT 78 and other human cell lines)) (UniProt P19338)
TIII = assay: Cell growth / proliferation (viable cell number); type: cell-based, murine; conditions: after 3 days of culture, vs untreated control, mean of at least 2 independent experiments
Procedure: (§1) Human breast (MDA-MB-231, MDA-MB-435 [37]), prostate (LNCaP, from American Type Culture Collection, ATCC, Rockville, MD), and cervical (HeLa) epithelial cancer cells were grown in DMEM-glutamax medium (Gibco Invitrogen, Cergy-Pontoise, France) containing GlutaMAX™, 4.5 g/l glucose and supplemented with 10% heat-inactivated (56°C for 30 min) fetal bovine serum (FBS; Hyclone, Thermo Fisher Scientific, Inc). Human SW480 cells are derived from a grade 3-4 colon carcinoma, while the highly metastatic counterpart SW620 is established from the lymph node of a person. Both SW480 and SW620 cells (obtained from Francis Raul, IRCAD) are highly tumorigenic in nude mice. They were cultured in D-MEM, 10% FCS. The murine melanoma TIII cell line was obtained from Armelle Prévost-Blondel. Murine T29 lymphoma cells, obtained from Philippe Kastner (CNRS, Strasbourg), have been established from Ik^L/L tumors from mice carrying a hypomorphic mutation (Ik^L/L) in the Ikaros gene encoding a transcription factor that regulates lymphocyte differentiation, and acts also as a tumor suppressor in T lymphocytes. The T29 cells were cultured in RPMI medium containing 25 mM Hepes pH 7.6, 1 mM sodium pyruvate, and 10% FCS. Human leukemia cell lines, Jurkat (acute T cell leukemia), HuT 78 (cutaneous T lymphocyte), RAJI (Burkitt lymphoma), and HL60 (promyelocytic leukemia) were cultured in RPMI-1640 medium (Gibco) containing GlutaMAX™, and supplemented with 10% heat-inactivated FBS as described before. The wild-type Chinese hamster ovary cell line (CHO K1) was purchased from American Type Culture Collection (ATCC; Rockville, MD). The CHO LRP1-null cell line (CHO-13-5-1) was kindly provided by D. Strickland [47]. They were cultured in Ham's F12K medium. All cells were cultured with 10% (v/v) heat inactivated (56°C, 30 min) fetal bovine serum (FBS) (Roche Molecular Biochemicals, Indianapolis, IN) and 50 international units/mL penicillin-streptomycin (Invitrogen). Cell death was monitored conveniently by uptake of the trypan blue dye due to plasma membrane permeability of dying and/or dead cells.

T29 [2] = assay: Cell growth / multiplication (viable cell number); type: cell-based, murine; conditions: for multiplication index of cells at day 3 compared to day 0: T29 seeded at 150,000 cells/ml, 20 μM (pentavalent), triplicate, control 17.5-fold
Procedure: as §1
Figure 7 HB-19 and related multivalent Nucant pseudopeptides induce cell death associated with internucleosomal DNA fragmentation. A. Inhibition of cell multiplication by HB-19 and related multivalent Nucant pseudopeptides. […] Cell cultures (in triplicate) were monitored for viable cell number daily for 3 days. The histograms show the mean number of cells/ml ± SD of triplicate samples. The multiplication index of cells at day 3 compared to day 0 (the day of seeding) is given at the top of histogram. At 3 days post passage of T29 cells, the cell multiplication index of cells is 17.5-fold compared to 8.9-, 7.2-, 2.2-, and 1.7-fold in the presence of treatment with HB-19, N3, N6, and N7, respectively. B. N7 inhibits T29 cell multiplication in a dose dependent manner. T29 cells seeded at 100,000/ml in 2 ml in the absence (0 μM) or presence of N7 at various concentrations 2.5, 5, 10 and 20 μM were cultured for 3 days and the number of viable cells was determined at day 1, 2, and 3 post-seeding. The ordinate gives the cell number/ml (the mean of 2 samples) in each culture at day 1, 2, and 3 post-seeding. C. Partial cleavage of surface/cytoplasmic nucleolin. T29 cells were cultured for 45 min with 0 (for control; lanes C), 2 and 10 μM of N6 before preparation of cytoplasmic (that contains both surface and cytoplasmic nucleolin) and nuclear extract and analysis by immunoblotting using rabbit polyclonal antibodies that are directed against the first 26 (panel anti-Nt Ab) and the last 16 amino acids (panel anti-Ct Ab) of human nucleolin, respectively. The nuclear extracts were analyzed by immunoblotting using anti-Nt Ab (Methods). […]

T29 [3] = assay: Cell death (trypan blue uptake); type: cell-based, murine; conditions: T29 cells, 0-20 μM, read-out: Cell death: IC50 24 hours post-passage
Procedure: as §1

melanoma TIII cell = assay: Cell adhesion; type: cell-based, murine; conditions: after 5 hours of cell seeding, vs untreated control, mean of at least 2 independent experiments
TNF-α = TNF-α production by PBMC stimulated with heat-killed Staphylococcus aureus, ELISA; type: cell-based; conditions: Homo sapiens, PBMC + HKSA 10^8 particles/ml, 1 μg/ml, 20 hours post-stimulation, triplicate, read-out: degree of inhibition of TNF-α production
Procedure: (§2) Peripheral blood mononuclear cells (PBMC) from healthy donors were prepared by Ficoll-Hypaque density gradient centrifugation and suspended in RPMI 1640 medium containing 1% (v/v) of human serum AB (from Invitrogen). PBMC (10^6 cells/0.5 ml) in the absence or presence of 10 μM of each of HB-19, N3, N6, and N7, or 1 μg/ml of dexamethasone (Sigma) were stimulated with 10^8 particles/ml of Heat-killed Staphylococcus aureus (HKSA; InvivoGen, San Diego, USA). The cultures were incubated at 37°C in a 5% CO2 incubator, and the level of TNF-α and IL-6 was monitored in the culture supernatants by ELISA (R & D Systems) at 20 hours post-stimulation.
(§3) Figure 3 HB-19 and related Nucant pseudopeptides inhibit the production of TNF-α and IL-6 by peripheral blood lymphocytes. The production of pro-inflammatory cytokines in PBMC cultures stimulated with HKSA was carried out in triplicate in the absence (Control) or presence of 10 μM of each of HB-19, N3, N6, N7, N6L, or 1 μg/ml of dexamethasone (Dex.)(Methods). The level of TNF-α (section A) and IL-6 (section B) was monitored in culture supernatants by ELISA. The data presents the mean ± SD of triplicate samples. The degree of inhibition is indicated at the top of each histogram. Statistical significance: **p < 0.01, ***p < 0.001. […]

IL-6 = IL-6 production by PBMC stimulated with heat-killed Staphylococcus aureus, ELISA; type: cell-based; conditions: Homo sapiens, PBMC + HKSA 10^8 particles/ml, 1 μg/ml, 20 hours post-stimulation, triplicate, read-out: degree of inhibition of IL-6 production
Procedure: as §2, §3

[4] = system: CHO 13 cells (LRP-1 null); assay: Midkine (MK) internalization, confocal immunofluorescence; type: cell-based, Chinese hamster; conditions: CHO 13 (LRP-1 null), pretreatment 5 μM 30 min at 20°C, then MK 0.2 μM 90 min at 37°C
Procedure: (§4) CHO K1 and CHO 13 cells (as in the Additional file 2, Figure 3S) were incubated with 0.2 µM Midkine (MK) for 90 min at 37°C or at 20°C before fixation with PFA. In sections C and E, cells were first incubated (30 min at 20°C) with 5 µM HB-19 before addition of MK (0.2 µM) and further incubation at 37°C for 90 min. […] Experimental conditions for confocal immunofluorescence microscopy were as described previously.

CHO K1 cells = assay: as above; type: cell-based, Chinese hamster; conditions: CHO K1, pretreatment 5 μM 30 min at 20°C, then MK 0.2 μM 90 min at 37°C
Procedure: as §4

[5] = system: human breast tumor cell xenografts; conditions: nude mice; cited from earlier work
Excerpt: (§5) The importance of cell-surface nucleolin in cancer biology was recently highlighted by studies showing that ligands of nucleolin play critical role in tumorigenesis and angiogenesis. Accordingly, we recently reported that both of these events are suppressed by targeting surface nucleolin with the HB-19 pseudopeptide, a potent antagonist that forms an irreversible complex with surface nucleolin [9, 37]. By binding to the RGG domain of nucleolin, HB-19 prevents binding of growth factors to cells, triggers calcium entry into cells, inhibits MAP kinase activation, and down-regu ...

spontaneous melanoma = conditions: RET mice, treatment for several months; cited from earlier work
Excerpt: as §5

Chain of nucleolin (cell-surface expressed nucleolin), human (human (endogenous in HeLa, CEM, MDA-MB-231, HuT 78 and other human cell lines)) (P19338 whole entry): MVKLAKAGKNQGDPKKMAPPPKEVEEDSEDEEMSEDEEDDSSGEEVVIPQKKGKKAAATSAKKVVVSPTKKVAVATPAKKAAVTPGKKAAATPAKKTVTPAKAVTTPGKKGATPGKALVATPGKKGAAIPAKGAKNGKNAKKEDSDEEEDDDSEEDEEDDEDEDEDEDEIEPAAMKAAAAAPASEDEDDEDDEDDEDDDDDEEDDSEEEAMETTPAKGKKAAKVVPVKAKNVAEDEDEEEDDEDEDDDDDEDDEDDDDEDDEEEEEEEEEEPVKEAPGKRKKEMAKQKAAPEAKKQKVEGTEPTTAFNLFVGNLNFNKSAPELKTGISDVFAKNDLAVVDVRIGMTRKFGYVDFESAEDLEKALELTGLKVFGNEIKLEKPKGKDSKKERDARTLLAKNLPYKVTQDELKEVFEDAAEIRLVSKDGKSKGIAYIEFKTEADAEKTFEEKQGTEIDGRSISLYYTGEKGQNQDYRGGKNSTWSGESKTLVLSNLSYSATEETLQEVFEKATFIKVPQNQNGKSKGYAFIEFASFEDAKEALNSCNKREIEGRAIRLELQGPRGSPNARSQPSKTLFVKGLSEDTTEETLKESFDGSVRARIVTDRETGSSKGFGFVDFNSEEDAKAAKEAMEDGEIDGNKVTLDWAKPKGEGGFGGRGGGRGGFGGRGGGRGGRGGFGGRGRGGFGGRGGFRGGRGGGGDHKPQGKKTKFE

## Nucant 6L pseudopeptide
[1]
  inhibition of HIV-1 LAI entry into HeLa CD4+ (LTR-LacZ) cells, β-galactosidase activity at 48 h, 0.05-0.8 μM; activity against the pentavalent N3 and HB-19: > 4 fold

## Nucant 6 pseudopeptide
[1]
  inhibition of HIV-1 LAI entry into HeLa CD4+ (LTR-LacZ) cells, β-galactosidase activity at 48 h, 0.1-0.8 μM; activity against the pentavalent N3 and HB-19: > 2 fold

## Ac-Lys-Aib-Gly-Lys-Aib-Gly-Lys-Aib-Gly-Lys-Aib-Gly-Lys-Aib-Gly-CONH2 [Nucant N3, Presents pentavalently the pseudo-tripeptide Lysψ(CH2N)-Pro-Arg coupled to the polypeptide template containing Aib]
TIII; 5 μM
  % Inhibition of cell Proliferation: No effect
TIII; 10 μM
  % Inhibition of cell Proliferation: 10%
TIII; 20 μM
  % Inhibition of cell Proliferation: 36%
T29 [2]
  multiplication index of cells at day 3 compared to day 0: 7.2 fold
T29 [3]
  IC50: > 20 µM
Melanoma TIII cell; 5 μM
  % Inhibition of cell Adhesion: No effect
Melanoma TIII cell; 10 μM
  % Inhibition of cell Adhesion: 15%
Melanoma TIII cell; 20 μM
  % Inhibition of cell Adhesion: 24%

## Nucant 7 pseudopeptide
[1]
  inhibition of HIV-1 LAI entry into HeLa CD4+ (LTR-LacZ) cells, β-galactosidase activity at 48 h, 0.1-0.8 μM; activity against the pentavalent N3 and HB-19: > 2 fold

## C[C@@H]1C[C@H]2[C@@H]3CCC4=CC(=O)C=C[C@]4(C)[C@@]3(F)[C@@H](O)C[C@]2(C)[C@@]1(O)C(=O)CO [Dex., dexamethasone]
TNF-α
  inhibition at 1 µg/mL: 61%
IL-6
  inhibition at 1 µg/mL: 62%

## H2NLys-Lys-Lys-Gly-Pro-Lys-Glu-Lys-AhxCONH2 [HB-19, Surface nucleolin antagonist pseudopeptide presenting pentavalently the pseudo-tripeptide Lysψ(CH2N)-Pro-Arg coupled to a peptide template]
T29 [2]; T29 cells, 0-20 μM, number of viable cells at 3 days post-treatment, read-out: Cell number: IC50 72 hours post-passage
  IC50: 20 µM
T29 [2]
  multiplication index of cells at day 3 compared to day 0: 8.9 fold
T29 [3]
  IC50: > 20 µM
[4]
  MK entry: not affected
CHO K1 cells
  MK entry: prevents MK entry
[5]
  progression of established human breast tumor cell xenografts: markedly suppresses the progression
Spontaneous melanoma
  onset and frequency of spontaneous melanoma: delays significantly
  toxicity to normal tissue: no toxicity
